Laboratory results from patent US20070212707A1, “CELL CYCLE MARKERS” (GE HEALTHCARE UK LIMITED, priority 2004, published 2007).
“Also recorded” adds a separate entry of the source.

What was measured:
[1] = tested on: U2OS cells transiently expressing GFP-HDHB; experiment: DNA damage response assay: GFP-HDHB nuclear focus formation; format: cell-based, human; conditions: 20 μM etoposide, 10 μM camptothecin or 1 μM mitomycin C, 20 h, DMSO control, Triton X-100 extraction
Description: U2OS cells (80-90% confluent) were transfected with pGFP-HDHB according to the manufacturer's protocol (Lipofectamine 2000, Invitrogen). […] After 20 h, cells were extracted with Triton X-100 buffer and then fixed for immunofluorescence as described above. Distinctive GFP-HDHB nuclear foci were counted in more than 100 cells in each independent assay.
Moreover, DNA damage induces nuclear foci that are thought to contain damage-sensing and -processing proteins (Nelms et al., Science, (1998) 280, 590-592; van den Bosch et al. EMBO Rep., (2003), 4, 844-849).

[2] = tested on: CRM1-mediated nuclear export; experiment: Nuclear export block: subcellular localization of GFP-HDHB and FLAG-HDHB with or without LMB; format: cell-based, human; conditions: asynchronous, G1 and S phase U2OS cells; 10 ng/ml LMB with 10 μM cycloheximide, 3 h
Description: In experiments to block nuclear protein export, cells were cultured for 3 h in DMEM containing 10 ng/ml of leptomycin B (LMB) (gift from Dr. M. Yoshida) and 10 μM cycloheximide (Calbiochem, San Diego, Calif.) to prevent new protein synthesis. Cells plated on glass coverslips were microinjected as described (Herbig et al., 1999) except that plasmid DNA rather than protein was injected.
To assess whether the putative NES in HDHB was functional, we mutated Val/Leu and Leu/Leu of the NES motif to alanine to create NES mutants 1 and 2 (FIG. 6A). GFP-HDHB and GFP-βGal-PSLD harboring these NES mutations were transiently expressed in either asynchronous or synchronized U2OS cells.

Structure (SMILES) | number of large GFP-HDHB nuclear foci per cell compared to the control [1] | subcellular localization of GFP-HDHB and FLAG-HDHB fusion proteins in the presence of LMB [2]
CC[C@@]1(O)C(=O)OCc2c1cc1n(c2=O)Cc2cc3ccccc3nc2-1 [camptothecin] | more than doubled; also recorded: induced many more HDHB nuclear foci | 
CO[C@@]12[C@H](COC(N)=O)C3=C(C(=O)C(C)=C(N)C3=O)N1C[C@@H]1N[C@@H]12 [Mitomycin C, mitomycin C] | little effect | 
CCC(=C/[C@H](C)C/C=C/C(C)=C/[C@@H](C)C(=O)[C@@H](C)[C@H](O)[C@@H](C)C/C(C)=C/C(=O)O)/C=C/[C@@H]1OC(=O)C=C[C@@H]1C [LMB, leptomycin B] |  | both fusion proteins accumulated in the nucleus independently of the cell cycle
